The values below come from ChEMBL document CHEMBL3627608, “Crystal structures of human RIP2 kinase catalytic domain complexed with ATP-competitive inhibitors: Foundations for understanding inhibitor selectivity” (Bioorg Med Chem, 2015).

As usually defined, the inhibition is the relative decrease from the control value, in per cent.

The target in assay [1] is T1, Mitogen-activated protein kinase kinase kinase kinase 3 (Homo sapiens) (UniProt Q8IVH8).
T1 sequence (whole entry): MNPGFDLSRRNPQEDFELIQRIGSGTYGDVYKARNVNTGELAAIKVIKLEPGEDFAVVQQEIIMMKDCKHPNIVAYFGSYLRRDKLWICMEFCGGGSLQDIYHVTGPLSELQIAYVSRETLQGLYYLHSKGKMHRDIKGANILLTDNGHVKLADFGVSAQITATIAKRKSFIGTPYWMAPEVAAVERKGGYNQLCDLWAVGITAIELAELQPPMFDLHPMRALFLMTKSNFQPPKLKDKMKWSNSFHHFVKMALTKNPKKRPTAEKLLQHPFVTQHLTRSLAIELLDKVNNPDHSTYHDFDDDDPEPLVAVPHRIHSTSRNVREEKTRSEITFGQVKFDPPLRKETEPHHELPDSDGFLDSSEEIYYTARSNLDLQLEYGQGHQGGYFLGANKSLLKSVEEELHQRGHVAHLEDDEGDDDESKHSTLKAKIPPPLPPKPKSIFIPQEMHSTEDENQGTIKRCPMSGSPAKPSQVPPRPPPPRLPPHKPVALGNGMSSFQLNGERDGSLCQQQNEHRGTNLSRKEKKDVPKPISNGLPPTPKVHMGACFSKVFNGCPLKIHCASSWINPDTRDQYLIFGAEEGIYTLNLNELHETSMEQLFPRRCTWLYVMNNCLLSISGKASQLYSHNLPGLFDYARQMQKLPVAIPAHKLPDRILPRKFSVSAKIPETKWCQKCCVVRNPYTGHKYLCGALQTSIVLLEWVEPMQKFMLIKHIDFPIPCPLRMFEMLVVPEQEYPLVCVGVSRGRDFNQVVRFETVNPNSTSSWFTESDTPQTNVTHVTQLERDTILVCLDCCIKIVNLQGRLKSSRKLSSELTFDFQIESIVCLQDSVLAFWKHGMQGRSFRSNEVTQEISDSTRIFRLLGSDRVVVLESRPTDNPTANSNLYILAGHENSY
The assay is described as follows: Inhibition of GLK (unknown origin) at 10 uM after 120 mins P33 radiolabeled kinase activity assay.

The target in assay [2] is Tyrosine-protein kinase Lyn (Homo sapiens) (UniProt P07948). The assay is described as follows: Inhibition of LYN (unknown origin) at 10 uM after 120 mins P33 radiolabeled kinase activity assay.
Chain of Tyrosine-protein kinase Lyn (Homo sapiens) (P07948 2-512 limits assumed): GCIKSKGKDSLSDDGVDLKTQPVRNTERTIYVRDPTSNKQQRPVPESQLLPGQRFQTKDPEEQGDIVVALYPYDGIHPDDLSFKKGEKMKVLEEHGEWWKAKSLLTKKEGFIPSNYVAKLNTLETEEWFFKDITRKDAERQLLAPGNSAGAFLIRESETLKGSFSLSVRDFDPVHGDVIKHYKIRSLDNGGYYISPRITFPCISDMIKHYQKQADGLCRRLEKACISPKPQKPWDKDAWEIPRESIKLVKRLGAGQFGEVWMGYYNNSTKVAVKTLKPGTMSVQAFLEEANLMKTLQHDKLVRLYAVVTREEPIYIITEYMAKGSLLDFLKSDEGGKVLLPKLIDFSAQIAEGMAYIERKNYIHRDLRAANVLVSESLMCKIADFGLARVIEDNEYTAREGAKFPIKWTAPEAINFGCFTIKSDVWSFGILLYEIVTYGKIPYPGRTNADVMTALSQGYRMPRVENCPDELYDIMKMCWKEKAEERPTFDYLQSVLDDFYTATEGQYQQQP
The target of assay [3] is Misshapen-like kinase 1 (Homo sapiens) (UniProt Q8N4C8). Description: Inhibition of MINK (unknown origin) at 10 uM after 120 mins P33 radiolabeled kinase activity assay.
Chain of Misshapen-like kinase 1 (Homo sapiens) (Q8N4C8 whole entry, looked up): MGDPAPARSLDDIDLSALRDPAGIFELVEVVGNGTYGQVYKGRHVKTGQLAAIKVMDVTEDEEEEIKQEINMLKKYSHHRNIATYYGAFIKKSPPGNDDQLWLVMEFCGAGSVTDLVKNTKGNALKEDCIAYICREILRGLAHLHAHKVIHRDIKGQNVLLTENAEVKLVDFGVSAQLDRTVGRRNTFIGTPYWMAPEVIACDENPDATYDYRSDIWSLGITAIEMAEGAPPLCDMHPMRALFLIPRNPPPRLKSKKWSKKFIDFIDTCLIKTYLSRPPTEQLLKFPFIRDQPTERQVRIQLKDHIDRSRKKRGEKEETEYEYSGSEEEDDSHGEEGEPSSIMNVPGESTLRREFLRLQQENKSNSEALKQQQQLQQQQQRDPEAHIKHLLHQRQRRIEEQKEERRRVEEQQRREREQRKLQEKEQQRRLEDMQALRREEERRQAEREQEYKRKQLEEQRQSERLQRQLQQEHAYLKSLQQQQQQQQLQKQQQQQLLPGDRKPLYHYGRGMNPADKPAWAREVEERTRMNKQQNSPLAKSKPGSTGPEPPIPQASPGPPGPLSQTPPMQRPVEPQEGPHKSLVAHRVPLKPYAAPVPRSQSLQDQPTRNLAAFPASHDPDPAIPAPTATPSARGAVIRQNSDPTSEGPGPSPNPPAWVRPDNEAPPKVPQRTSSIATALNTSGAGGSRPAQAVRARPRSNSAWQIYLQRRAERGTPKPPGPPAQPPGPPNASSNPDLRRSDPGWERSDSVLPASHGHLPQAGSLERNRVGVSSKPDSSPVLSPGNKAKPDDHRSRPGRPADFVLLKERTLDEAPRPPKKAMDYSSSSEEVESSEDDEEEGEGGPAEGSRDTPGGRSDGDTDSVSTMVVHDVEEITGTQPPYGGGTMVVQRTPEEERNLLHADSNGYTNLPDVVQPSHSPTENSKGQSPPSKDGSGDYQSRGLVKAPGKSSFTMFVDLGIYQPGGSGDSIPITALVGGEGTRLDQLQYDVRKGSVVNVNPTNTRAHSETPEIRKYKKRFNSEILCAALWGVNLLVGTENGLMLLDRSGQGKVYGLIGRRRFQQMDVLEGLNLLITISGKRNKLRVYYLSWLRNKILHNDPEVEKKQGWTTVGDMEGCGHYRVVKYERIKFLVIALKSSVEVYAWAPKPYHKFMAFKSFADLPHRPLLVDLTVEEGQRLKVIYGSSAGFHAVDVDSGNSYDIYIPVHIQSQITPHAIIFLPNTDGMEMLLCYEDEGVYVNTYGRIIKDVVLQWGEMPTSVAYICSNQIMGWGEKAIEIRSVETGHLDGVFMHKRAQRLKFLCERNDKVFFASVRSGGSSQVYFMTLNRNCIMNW
For assay [4], the target named is T2, Serine/threonine-protein kinase D1 (Homo sapiens) (UniProt Q15139).
T2 sequence (whole entry): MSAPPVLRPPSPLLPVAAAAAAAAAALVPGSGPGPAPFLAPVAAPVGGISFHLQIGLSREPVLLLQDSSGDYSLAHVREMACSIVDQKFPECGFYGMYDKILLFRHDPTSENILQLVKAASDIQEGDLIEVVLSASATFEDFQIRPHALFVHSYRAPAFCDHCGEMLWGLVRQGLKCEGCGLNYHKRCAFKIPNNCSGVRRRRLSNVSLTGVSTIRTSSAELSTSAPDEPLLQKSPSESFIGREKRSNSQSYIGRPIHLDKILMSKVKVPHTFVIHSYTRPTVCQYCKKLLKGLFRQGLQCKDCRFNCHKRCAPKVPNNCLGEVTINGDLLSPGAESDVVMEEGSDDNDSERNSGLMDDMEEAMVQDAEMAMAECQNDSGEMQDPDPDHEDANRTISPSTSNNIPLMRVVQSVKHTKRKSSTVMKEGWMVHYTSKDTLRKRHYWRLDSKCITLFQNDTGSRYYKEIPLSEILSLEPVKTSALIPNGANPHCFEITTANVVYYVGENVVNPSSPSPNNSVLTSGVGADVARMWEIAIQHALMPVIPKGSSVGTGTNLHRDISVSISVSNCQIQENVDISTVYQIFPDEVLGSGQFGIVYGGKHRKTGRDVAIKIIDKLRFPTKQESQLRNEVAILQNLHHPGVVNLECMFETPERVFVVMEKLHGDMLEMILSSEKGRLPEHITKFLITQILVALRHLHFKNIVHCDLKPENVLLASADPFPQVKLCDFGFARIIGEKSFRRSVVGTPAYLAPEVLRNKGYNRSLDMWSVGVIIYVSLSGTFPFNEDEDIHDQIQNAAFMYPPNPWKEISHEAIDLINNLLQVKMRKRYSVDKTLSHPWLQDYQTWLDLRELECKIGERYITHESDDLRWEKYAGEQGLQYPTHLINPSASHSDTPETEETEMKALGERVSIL
Description: Inhibition of PKCmu (unknown origin) at 10 uM after 120 mins P33 radiolabeled kinase activity assay.

Assay [5] has as its target Mitogen-activated protein kinase kinase kinase kinase 5 (Homo sapiens) (UniProt Q9Y4K4). Description: Inhibition of KHS (unknown origin) at 10 uM after 120 mins P33 radiolabeled kinase activity assay.
The target in assay [6] is Vascular endothelial growth factor receptor 1 (Homo sapiens) (UniProt P17948). Description: Inhibition of FLT1 (unknown origin) at 10 uM after 120 mins P33 radiolabeled kinase activity assay.
Chain of Vascular endothelial growth factor receptor 1 (Homo sapiens) (P17948 whole entry): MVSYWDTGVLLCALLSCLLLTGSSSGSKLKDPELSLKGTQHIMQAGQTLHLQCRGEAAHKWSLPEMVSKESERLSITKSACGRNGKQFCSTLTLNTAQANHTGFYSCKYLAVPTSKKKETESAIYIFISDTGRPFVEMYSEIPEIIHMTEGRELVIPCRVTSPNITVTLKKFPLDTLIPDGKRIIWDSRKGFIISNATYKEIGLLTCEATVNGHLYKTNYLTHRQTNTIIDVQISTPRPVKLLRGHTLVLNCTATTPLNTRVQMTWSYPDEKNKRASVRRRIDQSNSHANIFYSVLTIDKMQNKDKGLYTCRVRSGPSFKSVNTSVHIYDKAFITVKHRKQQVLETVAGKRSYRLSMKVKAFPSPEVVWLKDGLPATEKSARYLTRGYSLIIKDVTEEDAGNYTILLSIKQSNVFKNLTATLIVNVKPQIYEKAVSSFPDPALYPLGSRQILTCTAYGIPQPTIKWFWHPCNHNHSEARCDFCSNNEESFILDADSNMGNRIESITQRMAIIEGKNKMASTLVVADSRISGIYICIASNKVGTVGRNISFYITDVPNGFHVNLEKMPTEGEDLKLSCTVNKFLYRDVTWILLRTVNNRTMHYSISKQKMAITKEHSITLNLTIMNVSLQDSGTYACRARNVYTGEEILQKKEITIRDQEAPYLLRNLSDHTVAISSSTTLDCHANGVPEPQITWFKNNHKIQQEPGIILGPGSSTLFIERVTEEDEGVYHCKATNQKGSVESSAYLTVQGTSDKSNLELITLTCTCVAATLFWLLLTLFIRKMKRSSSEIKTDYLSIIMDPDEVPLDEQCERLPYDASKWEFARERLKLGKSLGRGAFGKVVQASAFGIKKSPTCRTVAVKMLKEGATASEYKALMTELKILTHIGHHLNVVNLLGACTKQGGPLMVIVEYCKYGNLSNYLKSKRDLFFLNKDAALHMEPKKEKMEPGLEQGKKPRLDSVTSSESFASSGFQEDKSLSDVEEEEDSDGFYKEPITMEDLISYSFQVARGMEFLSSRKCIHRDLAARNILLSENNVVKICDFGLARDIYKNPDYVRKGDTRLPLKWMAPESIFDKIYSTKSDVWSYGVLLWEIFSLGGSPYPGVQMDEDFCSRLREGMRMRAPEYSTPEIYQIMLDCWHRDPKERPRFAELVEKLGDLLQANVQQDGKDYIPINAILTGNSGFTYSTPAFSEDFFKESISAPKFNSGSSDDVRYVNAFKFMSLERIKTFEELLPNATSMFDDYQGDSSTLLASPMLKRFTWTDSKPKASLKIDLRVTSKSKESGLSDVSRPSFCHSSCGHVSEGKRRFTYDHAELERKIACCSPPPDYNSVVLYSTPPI
Assay [7] has as its target T3, Serine/threonine-protein kinase Chk1 (Homo sapiens) (UniProt O14757).
T3 sequence (whole entry): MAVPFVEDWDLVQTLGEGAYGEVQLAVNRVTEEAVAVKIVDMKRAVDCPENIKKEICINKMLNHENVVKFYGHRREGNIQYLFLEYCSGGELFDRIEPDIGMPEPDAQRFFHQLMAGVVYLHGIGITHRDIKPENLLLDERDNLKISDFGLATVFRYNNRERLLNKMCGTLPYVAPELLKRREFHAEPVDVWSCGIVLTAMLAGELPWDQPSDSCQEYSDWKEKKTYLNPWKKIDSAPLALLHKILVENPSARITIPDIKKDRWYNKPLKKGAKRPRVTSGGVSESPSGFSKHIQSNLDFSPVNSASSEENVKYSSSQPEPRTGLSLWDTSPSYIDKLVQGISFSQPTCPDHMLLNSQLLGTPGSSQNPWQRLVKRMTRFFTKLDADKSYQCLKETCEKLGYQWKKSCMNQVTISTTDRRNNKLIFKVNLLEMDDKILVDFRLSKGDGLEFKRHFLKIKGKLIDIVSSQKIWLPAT
The assay is described as follows: Inhibition of CHK1 (unknown origin) at 10 uM after 120 mins P33 radiolabeled kinase activity assay.

Chain of Mitogen-activated protein kinase kinase kinase kinase 5 (Homo sapiens) (Q9Y4K4 whole entry, looked up): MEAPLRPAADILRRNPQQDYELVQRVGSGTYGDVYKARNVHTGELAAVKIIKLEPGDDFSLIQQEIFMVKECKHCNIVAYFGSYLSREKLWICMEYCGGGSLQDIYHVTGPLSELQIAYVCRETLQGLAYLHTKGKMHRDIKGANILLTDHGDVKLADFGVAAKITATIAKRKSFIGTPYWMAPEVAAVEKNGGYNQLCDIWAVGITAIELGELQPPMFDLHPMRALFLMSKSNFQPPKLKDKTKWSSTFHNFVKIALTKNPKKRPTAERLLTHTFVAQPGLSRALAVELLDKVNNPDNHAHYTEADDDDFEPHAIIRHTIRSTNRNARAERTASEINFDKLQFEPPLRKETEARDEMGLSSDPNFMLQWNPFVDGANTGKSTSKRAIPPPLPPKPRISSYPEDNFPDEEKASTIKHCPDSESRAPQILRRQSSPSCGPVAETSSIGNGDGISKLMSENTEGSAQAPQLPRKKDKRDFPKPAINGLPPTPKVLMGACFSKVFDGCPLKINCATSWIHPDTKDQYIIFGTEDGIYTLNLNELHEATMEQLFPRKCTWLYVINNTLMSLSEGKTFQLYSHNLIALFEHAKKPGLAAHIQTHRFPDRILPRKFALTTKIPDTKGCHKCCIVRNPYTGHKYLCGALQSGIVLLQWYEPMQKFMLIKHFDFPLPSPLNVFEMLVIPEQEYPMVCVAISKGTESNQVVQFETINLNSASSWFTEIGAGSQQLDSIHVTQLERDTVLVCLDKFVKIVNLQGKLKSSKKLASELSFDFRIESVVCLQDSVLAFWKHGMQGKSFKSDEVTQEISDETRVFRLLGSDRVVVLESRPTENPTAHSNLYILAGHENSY

On to `CS(=O)(=O)c1cccc(Nc2nccc(-c3sc(N4CCOCC4)nc3-c3cccc(NS(=O)(=O)c4c(F)cccc4F)c3)n2)c1`, for which the inhibition amounted to 56.2% in assay [1]; 100% in assay [2]; 62.5% in assay [3]; 100% in assay [4]; 93.5% in assay [5]; 98% in assay [6]. Besides, in assay [7], the inhibition is 10.9%.

Turning to `CC(C)(C)c1cc(NC(=O)Nc2ccc(Oc3ccncc3)cc2)no1`, the inhibition in assay [1] was 41.9%; in assay [2], 98.2%; in assay [3] it was 100%; in assay [4], 19.5%; in assay [5] it was 90%; in assay [6] it was 97.5%. The inhibition in assay [7] is -0.09%.

With `COCCNC(=O)c1ccc2c(c1)nc(-c1cnc(-c3ccc(Cl)cc3)[nH]1)n2CCOC`, the inhibition in assay [1] was determined as 4.53%; in assay [2] it was 61.6%; in assay [3] it was 60.7%; in assay [4] it was 12.1%; in assay [5] it was 33.6%; in assay [6], 0.33%. In assay [7], the inhibition is 15.3%.
